# Reference: publication PMC7570852, “Ruthenium(II)/(III) DMSO-Based Complexes of 2-Aminophenyl Benzimidazole with In Vitro and In Vivo Anticancer Activity” (Molecules, 2020)
# Marks after values point to notes of the source that are not given here.
# Experiments:
# [1] = system: Ehrlich ascites carcinoma (EAC); assay: Serum liver and kidney function tests, EAC-bearing mice; assay type: in vivo; details: mean ± SEM
# Protocol: (§1) The mice were divided into the following eight groups (10 mice in each group): • Control group: Mice were intraperitoneally injected with a vehicle (2% DMSO + sterile saline) for 12 days. • I, II, and III control groups: Healthy normal mice were intraperitoneally injected with 6, 12, and 18 mg/kg of complex (2), respectively, for 12 days. • EAC group: Mice were intraperitoneally injected by a single dose of 2.5 × 10^6 viable Ehrlich ascites carcinoma (EAC) cells in PBS. In brief, EAC cells were withdrawn from the EAC mouse’s intraperitoneal cavity, washed, and centrifuged three times with sterile saline. Then, the pellets were suspended in sterile PBS and counted by the trypan blue exclusion assay, which confirmed that the viability of the cells was 98%. • I, II, and III treated groups: Firstly, 30 healthy mice were intraperitoneally injected with a single dose of 2.5 × 10^6 viable EAC cells. After one day; the mice were divided into I, II, and III treated groups (10 mice each group), intraperitoneally injected with 6, 12, and 18 mg/kg Ru(III) complex, respectively, for 12 days.
# (§2) The animals were monitored for EAC growth by measuring abdominal size. At the end of the experiment all animals were fasted overnight then sacrificed. Serum samples were collected to study the biological parameters such as liver and kidney function as well as antioxidant enzyme activity. Liver samples from each group were frozen immediately in liquid nitrogen for molecular analysis.
# (§3) Liver function tests. Serum GPT and GOT activities were measured by the method of Murray with a standard kit. The enzyme activities were estimated by measuring the decrease in absorbance of NADH at 340 nm. Bilirubin concentration was estimated by the colorimetric method of Kaplan et al.. Albumin concentration was measured colorimetrically by the color change of bromocresol from yellow-green to green-blue.
# (§4) Kidney function tests. Creatinine was estimated colorimetrically by reacting with alkaline picrate forming a red complex. Urea was hydrolyzed enzymatically into ammonia which reacts with several compounds to form a green complex that can be measured colorimetrically. Uric acid was estimated by the enzymatic method of Schultz.
# [2] = system: caspase 3 gene expression; assay: Real-time qPCR of liver tissue, caspase 3; assay type: in vivo; details: liver tissue of EAC-bearing mice, vs untreated
# Protocol: RNA was isolated from liver tissues using a RNeasy Mini kit. The integrity and purity of RNA were assessed by 1% agarose gel electrophoresis and nanodrop, respectively. The obtained RNA was reverse transcribed to yield cDNA using Quantiscript reverse transcriptase. Specific primers for Bax, caspase 3, and Bcl2 genes in addition to the housekeeping gene, β actin were designed by the Primer 3 web-based tool based on the published mice sequences (Table 5). Quantitative real-time PCR (qPCR) was performed using QuantiTect SYBR Green qPCR Master Mix in a StepOnePlus real-time PCR system and the melting curve condition and fold change calculation were done as previously described.
# [3] = Serum liver and kidney function tests, healthy mice; assay type: in vivo; details: mean ± SEM
# Protocol: as §1, §2, §3, §4
# [4] = system: SOD, GSH, CAT, TAC; assay: Oxidative stress markers in serum of EAC-bearing mice; assay type: in vivo
# Protocol: as §1, §2
# The SOD activity in serum samples was evaluated as described by Dechatelet et al.. GSH was assayed in serum samples by detection of a yellow colored product following a reaction with 5,5’-dithiobis(2-nitrobenzoic acid) (DTNB). The catalase activity was estimated according to Aebi. Total antioxidant capacity (TAC) was determined by the method of Koracevic et al..
# [5] = Maximum tolerated dose in healthy mice; assay type: in vivo
# Protocol: These mice were examined daily for any sign of toxicity and weighed every two days. […] Therefore, doses of 6, 12, and 18 mg/kg were used in subsequent experiments.
# [6] = system: Caco2 cells; assay: DNA fragmentation (agarose gel), Caco2; assay type: cell-based, human; details: Caco2, 117.6 µg/mL, 4 h
# Protocol: MCF7 and Caco2 cells were collected and genomic DNA was extracted using a Gene JET genomic DNA extraction kit following the manufacturer’s protocol (Thermo Scientific, #K0721). The extracted DNA samples were run on a 1.5% agarose gel at 50 V for 2 h and the fragment pattern was visualized by ethidium bromide staining under a UV transilluminator.
# [7] = II treated 12 mg/kg i.p. 12 days
# [8] = III treated 18 mg/kg i.p. 12 days
# [9] = II control 12 mg/kg i.p. 12 days
# [10] = III control 18 mg/kg i.p. 12 days
# [11] = three treated groups vs untreated EAC group
structure (smiles),measurement,setting,value
"CS(C)=O.Nc1ccccc1-c1nc2ccccc2[nH]1.O.[Cl][Ru]([Cl])[Cl] [(2), [Ru(III)Cl3(DMSO)(Hapbim)]·H2O]",Albumin,[1]; I treated 6 mg/kg i.p. 12 days,0.9 ± 0.03 g/dL
same,Bilirubin,[1]; I treated 6 mg/kg i.p. 12 days,0.18 ± 0.03 mg/dL
same,Creatinine,[1]; I treated 6 mg/kg i.p. 12 days,0.7 ± 0.01 mg/dL
same,GOT,[1]; I treated 6 mg/kg i.p. 12 days,248 ± 15.6 ^a U/L
same,GPT,[1]; I treated 6 mg/kg i.p. 12 days,15.2 ± 0.7 U/L
same,Urea,[1]; I treated 6 mg/kg i.p. 12 days,34.5 ± 0.4 mg/dL
same,Uric Acid,[1]; I treated 6 mg/kg i.p. 12 days,2.6 ± 0.1 mg/dL
same,Albumin,[1]; [7],2.7 ± 0.3 g/dL
same,Bilirubin,[1]; [7],0.2 ± 0.03 mg/dL
same,Creatinine,[1]; [7],0.7 ± 0.1 mg/dL
same,GOT,[1]; [7],179 ± 10.8 U/L
same,GPT,[1]; [7],17.8 ± 0.6 U/L
same,Urea,[1]; [7],34.2 ± 0.6 mg/dL
same,Uric Acid,[1]; [7],2.7 ± 0.1 mg/dL
same,Albumin,[1]; [8],2.6 ± 0.1 g/dL
same,Bilirubin,[1]; [8],0.18 ± 0.02 mg/dL
same,Creatinine,[1]; [8],1 ± 0.1 ^a mg/dL
same,GOT,[1]; [8],145 ± 39.3 U/L
same,GPT,[1]; [8],31.9 ± 7.8 U/L
same,Urea,[1]; [8],33.3 ± 1.2 mg/dL
same,Uric Acid,[1]; [8],2.8 ± 0.1 mg/dL
same,caspase 3 mRNA level,[2],significant increases
same,Albumin,[3]; I control 6 mg/kg i.p. 12 days,2.3 ± 0.1 g/dL
same,Bilirubin,[3]; I control 6 mg/kg i.p. 12 days,0.15 ±0.02 ^b mg/dL
same,Creatinine,[3]; I control 6 mg/kg i.p. 12 days,0.37 ±0.1 ^b mg/dL
same,GOT,[3]; I control 6 mg/kg i.p. 12 days,41.8 ± 2.9 ^b U/L
same,GPT,[3]; I control 6 mg/kg i.p. 12 days,15.6 ± 1.6 ^b U/L
same,Urea,[3]; I control 6 mg/kg i.p. 12 days,33.5 ± 0.7 ^b mg/dL
same,Uric Acid,[3]; I control 6 mg/kg i.p. 12 days,2.9 ± 0.1 ^b mg/dL
same,Albumin,[3]; [9],2.7 ± 0.1 ^b g/dL
same,Bilirubin,[3]; [9],0.13 ± 0.02 ^b mg/dL
same,Creatinine,[3]; [9],0.7 ± 0.02 mg/dL
same,GOT,[3]; [9],54.9 ± 2.2 U/L
same,GPT,[3]; [9],17.2 ± 0.5 ^b U/L
same,Urea,[3]; [9],31.7 ± 1.2 ^b mg/dL
same,Uric Acid,[3]; [9],2.97 ± 0.1 ^b mg/dL
same,Albumin,[3]; [10],2.3 ± 0.1 g/dL
same,Bilirubin,[3]; [10],0.26 ± 0.02 mg/dL
same,Creatinine,[3]; [10],0.75 ± 0.02 mg/dL
same,GOT,[3]; [10],68.8 ± 3.6 U/L
same,GPT,[3]; [10],19.6 ± 0.3 U/L
same,Urea,[3]; [10],36.7 ± 1.6 ^b mg/dL
same,Uric Acid,[3]; [10],2.77 ± 0.1 ^b mg/dL
same,SOD levels,"[4]; I (6 mg/kg), II (12 mg/kg), III (18 mg/kg) treated groups vs untreated EAC group",elevated
same,CAT levels,[4]; [11],increased
same,GSH levels,[4]; [11],increased
same,total antioxidant capacity (TAC),"[4]; three treated groups vs untreated EAC group, p < 0.0001",significantly increased
same,toxicity on repeated dosing,"[5]; healthy mice, 6, 12 and 18 mg/kg i.p., until the 12th day",No weight loss or signs of toxicity
same,toxicity on repeated dosing,"[5]; healthy mice, 30 and 40 mg/kg i.p.",toxic after 3-5 days and all the animals were dead on the fifth day
same,DNA fragmentation,[6],distinct DNA laddering
